Test results taken from patent US20260242738A1, “ALK5 INHIBITORS FOR EFFICIENT DERIVATION OF MESENCHYMAL STEM CELLS FROM EMBRYONIC STEM CELLS” (SCRIPPS HEALTH, priority 2022, published 2026).
“Also recorded” adds a separate entry of the source.

Columns and labels:
HADC 100 ES-MSC = experiment: Pellet culture chondrogenesis, histology and immunohistochemistry; format: cell-based, human; details: 3 weeks; for cartilage-like tissue formation in high density pellets: HADC 100 ES-MSC, Safranin-O, collagen type I and II
Procedure: Monolayer-expanded ES-MSC (passage 2-5) were detached using Accutase® and 0.5×10^6 cells in 0.5 ml of chondrogenic medium were centrifuged at 900 rpm (~770 G) for 5 minutes to form high-density pellets. At least 5-6 pellets, for each ES-MSC condition, were cultured in serum-free chondrogenic medium consisting of Dulbecco's Modified Eagle Medium (Mediatech Inc., Manassas, VA), 1×ITS supplement (Sigma-Aldrich, St. Louis, MO), 100 nM Dexamethasone (Sigma), 1.25 mg/ml human serum albumin (Bayer, Leverkusen, Germany), 100 μM ascorbic acid 2-phosphate (Sigma), 1% penicillin/streptomycin/gentamycin (PSG, Gibco, Carlsbad, CA), and 10 ng/ml TGFβ3 (PeproTech, Rocky Hill, NJ). Pellets for ex vivo implantation were cultured for 3 days before implantation; pellets for histologic or gene expression analysis were maintained in culture for 3 weeks with media changes every 3 to 4 days.
Cell pellets and explants were fixed in Z-Fix (3.7% formaldehyde, Anatech Ltd., Battle Creek, MI), processed for embedding in paraffin, and cut into 4 μm-thick sections. Sections were stained with Safranin-O and Fast Green to visualize glycosaminoglycan distribution in the tissues. Alzarin Red S staining was used to detect the presence of mineralized matrix.
For assessment of collagen types I and II, sections were pretreated with pepsin (Digest-All 3, Thermo Fisher Scientific) for 9 minutes at 37° C. in a humid chamber before incubation at 4° C. for 12 to 16 hours with the following primary antibodies: rabbit anti-human collagen type I antibody (Ab 34710, Abcam, Cambridge, MA) 1 μg/ml; or mouse anti-human collagen type II (II-II6B3, Hybridoma Bank, University of Iowa) 2 μg/ml. For color development, the ImmPRESS secondary DAB (brown) or AP (red) kits (Vector Laboratories, Burlingame, CA) was used. Isotype controls were used to monitor non-specific staining.

[1] = system: ex vivo osteoarthritic cartilage explants; experiment: Ex vivo human osteoarthritic cartilage defect repair with fibrin-ECM constructs or pellets; format: cell-based; details: implanted as hydrogel or pellets, 3 weeks, serum-free chondrogenic medium with TGFβ3 10 ng/ml
Procedure: Monolayer cultured ES-MSC were suspended in a hydrogel wafer composed of collagen II (Innovative Research Inc. Novi, MI), hyaluronate (Supartz FX sodium hyaluronate, Seikagaku Corp. Tokyo, Japan), chondroitin sulfate (Sigma-Aldrich) and fibrin (Baxter Healthcare, Deerfield, IL) at a density of 20×10^6 cells per ml. The fibrinogen and thrombin components were prepared separately. To each fibrinogen component, 2 mg/ml sodium hyaluronate, 2 mg/ml chondroitin sulfate and 6 mg/ml collagen II was added (2× concentration of final). Cells were added to the thrombin component at a density of 40×10^6 cells per ml. Thrombin and fibrinogen components in individual syringes were attached to a Baxter DUO mixing syringe and extruded to form the coagulated constructs. The constructs were either directly implanted into ex vivo cartilage tissue or coagulated in 6 well tissue culture plates for 4 to 8 minutes before 4-6 ml of chondrogenic medium was added. To prevent shrinkage of the constructs during culture, the gels were held on AdminPatch microneedle arrays (AdminMed, Sunnyvale, CA) for the duration of their culture.
Osteochondral tissues were obtained from patients ranging between 60 to 70 years of age undergoing total knee arthroplasty within 4-6 hours of surgery (approved by Scripps Institutional Review Board) as previous described. Cartilage disks (6 mm in diameter and ~2-3 mm thick) were harvested from the osteochondral specimens using a sterile dermal punch. The cartilage tissue was cultured in medium consisting of DMEM (Mediatech Inc., Manassas, VA) supplemented with 10% calf serum (Omega Scientific Inc., Tarzana, CA) and 1% Penicillin-Streptomycin-Gentamycin (Life Technologies, Carlsbad, CA). Cartilage disks were maintained in 6-well plates (2-4 per well) in 8 ml medium for 72 hours before creation of the surgical defect. A flame-sterilized stainless-steel burr was used create defects approximately 2×2 mm wide and 0.5 to 1 mm deep. These defects were filled with pellets or hydrogel constructs trimmed to size using 2 mm dermal biopsy punches. […]

Row | Compound | cartilage-like tissue formation in high density pellets (HADC 100 ES-MSC) | cartilaginous neo-tissue formation in ex vivo osteoarthritic explants [1] | staining for GAGs, collagen type II and collagen type I in pellets compared to the other ALK5 inhibitors (HADC 100 ES-MSC; HADC 100 ES-MSC pellets)
1 | NC(=O)c1ccc(-c2nc(-c3ccc4c(c3)OCO4)c(-c3ccccn3)[nH]2)cc1 [SB431542] | consistently produced cartilage like-tissue | formed equally well | 
2 | Cc1cccc(-c2[nH]c(C(C)(C)C)nc2-c2ccc3nccnc3c2)n1 [SB525334] | also produced cartilage-like tissue | formed equally well | most consistent staining for GAGs and collagen type II, and lower collagen type I signal; also recorded: most uniform GAGs and collagen type II deposition, and with reduced collagen type I
